Columns and labels:
[1] = system: E-cadherin-mediated cellular signaling in HCT116; test: Subcellular fractions of HCT116, Western blot; format: cell-based, human; conditions: 50 μM inhibitor pre-incubated 1 hour, FadAc
Excerpt: The following antibodies were used: anti-FadA monoclonal antibody (mAb) 5G11-3G8 (Xu et al., 2007), mAb anti-CDH1 (Abcam or Cell Signaling Tech), polyclonal anti-phospho-CDH1 (ECM Biosciences), mAb anti-GAPDH (Invitrogen), mAb anti-β-catenin (R&D systems), polyclonal anti-phospho-β-catenin (Cell Signaling Tech), mAb anti-LEF/TCF1 (Invitrogen), mAb anti-NFkB (Invitrogen), mAb anti-Myc (Cell Signaling Tech), mAb anti-cyclin D1 (Cell Signaling Tech), mAb anti-EGFR (Cell Signaling Tech), mAb anti-GAPDH (Cell Signaling Tech), mAb anti-PCNA (Cell Signaling Tech), polyclonal goat-anti-mouse or goat-anti-rabbit secondary antibody conjugated with horseradish peroxidase (HRP) (Pierce Biotechnology). Peptides were synthesized by Neo Group, Inc (Cambridge, Mass.). Western blot analyses were performed as previously described.
Cells were incubated with 1 mg/ml of FadAc or mFadA followed by the extraction of subcellular fractions. When indicated, 50 μM of the corresponding protein tyrosine kinase inhibitor (Genistein) and clathrin inhibitor (Pitstop2) were pre-incubated with cells for 1 hour. Membrane, cytosolic and nuclei fractions were prepared using the Compartmental Protein Extraction kit (Millipore) according to the manufacturer's instructions.

HCT116 [2] = test: Real-time quantitative PCR (qPCR) of HCT116; format: cell-based, human; conditions: for inhibition of activation of inflammatory genes, mRNA / inhibition of activation of tumor growth genes (Wnt, oncogenes), mRNA: FadAc, 2 hrs incubation
Procedure: (§1) Total RNA was extracted from CRC cells, xenografts, or clinical specimens. cDNA synthesis and RT-PCR were performed as previously described, using primers listed in Table 1. Data were analyzed by the ΔΔCt method and normalized to the GAPDH or Fn-specific 16S rRNA. To quantify the fadA gene copies, plasmid carrying fadA was serially diluted to 10^2-10^8 fadA copies/μl and used to generate standard curves for Ct values. The fadA gene copies in the clinical samples were calculated based on the standard curves. Each experiment was performed in triplicates and repeated at least three times.

Fn [3] = test: Tissue culture invasion assay, Fn into HCT116; format: cell-based, Fusobacterium nucleatum; conditions: for inhibition of Fn invasion of HCT116: MOI 50, 4 hrs
Procedure: (§2) Cells were seeded in 24-well or 96-well plates at 8×10^4 cells or 2.5×10^4 cells per well in the growth medium and grown to 100% confluent. Bacteria were added to the cells at a multiplicity of infection (MOI) of 50. Following 1 hr incubation at 37° C. in 5% CO2, the monolayers were washed 3 times with D-PBS, pH 7.1, supplemented with Ca^2+ and Mg^2+. Cells were lyzed with water for 20 min at 37° C. Serial dilutions of the lysates were plated onto blood agar plates to enumerate the total cell-associated bacteria. For invasion assays, the bacteria were incubated with the monolayers at 37° C. for 4 hrs, followed by washes with PBS. Fresh media containing 300 μg/ml gentamicin and 200 μg/ml metronidazole were added to the monolayers and incubated for an additional hour to kill extracellular bacteria. The cells were then washed and lyzed with water as described above. The levels of attachment and invasion were expressed as the percentage of bacteria recovered following cell lysis relative to the total number of bacteria initially added. Each experiment was performed in triplicates and repeated at least twice.

Fn [4] = test: Tissue culture attachment assay, Fn on HCT116; format: cell-based, Fusobacterium nucleatum; conditions: for inhibition of Fn attachment of HCT116: MOI 50, 1 hr
Procedure: as §2

HCT116 xenografts [5] = test: HCT116 xenograft tumor growth in nude mice; format: in vivo; conditions: 0.01 μmol peptide with FadAc
Procedure: (§3) The animal protocol was approved by the Case Western Reserve University Institutional Animal Care and Use Committee. An inoculum of 5×10^6 cells were injected s.c. and bilaterally into 4- to 6-week-old female nude mice (5 per group) as previously described. The mice were randomized to receive one of the following: FadAc or mFadA (each at 80 μg), BSA (0.01 μmol, i.e., 660 μg), or peptide (0.01 μmol), or bacteria at 1×10^7 cfu, at each inoculation site.

[6] = system: Fusobacterium nucleatum (Fn); test: Fn attachment of endothelial cells; format: cell-based; conditions: FIG. 8
Procedure: as §2

[7] = system: RKO cells transfected with CDH1; test: Cell proliferation assay, RKO cells transfected with CDH1; format: cell-based, human; conditions: bacteria at MOI 1000:1
Procedure: CDH1 transfections were performed as previously described. siRNA assays were performed using the FlexiTube siRNA anti-CDH1 or anti-beta-catenin reagent and All Stars FlexiTube Control siRNA from Qiagen (Valencia, Calif.) according the manufacturer's instructions.
(§4) CRC cells were seeded in 24-well plates at 1×10^4 cells per well in the growth medium. Cells were untreated, or incubated with FadAc or peptides at indicated concentration, or with bacteria at a multiplicity of infection (MOI) of 1000:1. Cell numbers were counted at 24-hour intervals using a hemocytometer. Each experiment was performed in triplicates and repeated at least twice.

HCT116 [8] = test: Cell proliferation assay, HCT116; format: cell-based, human; conditions: bacteria at MOI 1000:1
Procedure: as §4

Fn [9] = test: Immunohistochemical staining of Fn-infected HCT116 xenografts; format: in vivo, Fusobacterium nucleatum; conditions: wild-type Fn injected into HCT116 xenografts
Procedure: Immunofluorescent staining of cells was performed as previously described. Mouse anti-β-catenin mAb and Alexa Fluor 634-conjugated goat anti-mouse polyclonal antibodies were used. IHC analysis of xenograft tumors were performed as previously described, using rabbit anti-Fn polyclonal antibodies. Pre-immune serum from the same rabbit was used as control.
as §3

[10] = system: Fusobacterium nucleatum (Fn); test: Fn invasion of endothelial cells; format: cell-based; conditions: FIG. 8
Procedure: as §2

HCT116 xenografts [11] = test: qPCR of HCT116 xenografts; format: in vivo, mice; conditions: FadAc or wild-type Fn
Procedure: as §3, §1

Molecule | effect of inhibitor on CRT activation (β-catenin translocation, LEF/TCF, Wnt and oncogenes) [1] | effect of inhibitor on E-cadherin phosphorylation [1] | effect of inhibitor on FadA and E-cadherin internalization [1] | effect of inhibitor on FadA binding to the membranes [1] | inhibition of activation of inflammatory genes, mRNA (HCT116 [2]) | inhibition of activation of tumor growth genes (Wnt, oncogenes), mRNA (HCT116 [2]) | inhibition of Fn invasion of HCT116 (Fn [3]) | inhibition of Fn attachment of HCT116 (Fn [4]) | effect of inhibitor on NF kappaB activation [1] | effect on Fn-stimulated expression of NF-kappaB and cytokines IL-6, 8, and 18 (HCT116 [2]; wild type Fn) | effect of peptide on FadAc-stimulated tumor growth (HCT116 xenografts [5]) | block of Fn attachment of endothelial cells [6] | suppression of Fn growth stimulation of CDH1-transfected RKO cells [7] | inhibition of Fn-stimulated HCT116 growth (HCT116 [8]) | prevention of Fn invasion into tumor tissues (Fn [9]) | block of Fn invasion of endothelial cells [10] | inhibition of stimulation of tumor growth genes and inflammatory genes in xenografts (HCT116 xenografts [11]) | concentration of maximum inhibition of Fn invasion of HCT116 (Fn [3]) | concentration of maximum inhibition of Fn attachment of HCT116 (Fn [4])
O=c1c(-c2ccc(O)cc2)coc2cc(O)cc(O)c12 [Genistein] | abolished | prevented | prevented | abolished | inhibited | inhibited | – | – | – | – | – | – | – | – | – | – | – | – | –
O=C1NC(=NS(=O)(=O)c2cccc3ccccc23)S/C1=C\c1ccc(Br)cc1 [Pitstop2] | unaffected | did not affect | inhibited | did not affect | only inhibited the inflammatory genes | not | prevented | without affecting attachment | no NF kappaB activation was observed | abolished | – | – | – | – | – | – | – | – | –
ASANWTIQYND [inhibitory peptide] | – | – | – | – | – | – | minimum required | minimum required | – | – | No increase was detected | block | diminished | inhibited | prevented | block | inhibited | – | –
GST-EC5 fusion protein: purified GST fusion protein carrying the EC5 domain of E-cadherin (protein, left off: a dimerising Fc or GST, purified GST fusion protein carrying the EC5 domain of E-cadherin) IPEPRTIFFCERNPKPQVINIIDADLPPNTSPFTAELTHGASANWTIQYNDPTQESIILKPKMALEVGDYKINLKLMDNQNKDQVTTLEVSVCDCEGAAGVCRK | – | – | – | – | – | – | inhibited by purified GST-EC5 fusion protein in a dose-dependent manner | inhibited by purified GST-EC5 fusion protein in a dose-dependent manner | – | – | – | – | diminished | inhibited | – | – | – | 0.1 µM | 0.1 µM
